Measurements reported in US7977304B2, “FK 228 derivates as HDAC inhibitors” (University of Southampton Highfield, priority 2005, dated 2011).

Columns and labels:
MCF7 cells = test: Activity Assay 3: cell cycle distribution and survival by propidium iodide flow cytometry; assay type: cell-based; details: MCF7, ~10×IC50 for growth inhibition, 24, 48 or 72 hours
Procedure: Method; MCF7 cells were incubated with indicated concentrations of compounds, or left untreated as a control, for various times, as detailed in the figure legends. Cells were collected and the proportion of cells in different phases of the cell cycle determined using propidium iodide staining and flow cytometry as previously described (Purohit et al., Int J Ca 85, 584-9 2000). The proportion of cells with <G0/G1 content (pre G0) relative to total cells was calculated first. The proportion of cells in different cell cycle phases (G0/G1, S, G2/M) was calculated as a proportion of all cells in the cell cycle (i.e., total cells minus cells with <G0/G1 content).
MCF7 cells were incubated with the indicated concentrations of compounds (each equivalent to ˜10×IC50 values for growth inhibition), or DMSO as a solvent control, for 24, 48 or 72 hours. The proportion of cells in different phases of the cell cycle was determined by flow cytometry. Data shown are mean values ±SD, derived from two separate experiments, relative to untreated cells which are normalised to 1.

[1] = test system: A2780 ovarian cancer cells; test: Activity Assay 6: CyQuant cell growth inhibition, A2780; assay type: cell-based; details: Homo sapiens, 96 h, A2780, 4 days
Procedure: (§1) We analysed the ability of compounds to inhibit the in vitro growth of human cancer cells. Cell proliferation assays were performed using the CyQuant™ assay system (Molecular Probes, Inc. USA) according to the manufacturer's instructions. MCF7 breast, A2780 ovarian and PC3 and LNCAP prostate cancer cells were plated in 96 well plates, at a density of 1000 cells for MCF7 cells or 5000 cells for M780/PC3/LNCAP cells, in 100 μl of cell culture medium per well. Compounds were added a minimum of 5 hours later, in serial dilutions in cell culture medium, in 100 μl volumes at 2× final concentration. Cell culture medium was removed after 4 (A2780, PC3 or LNCAP cells) or 6 days (MCF7 cells) by inversion of the plate onto blotting paper and cells were gently washed once with 200 μl PBS. Plates were frozen immediately for a minimum of one hour at −80° C. and then thawed. 200 μl of 1× CyQuant cell lysis buffer supplemented with dye, made according to the manufacturer's instruction, was added immediately to each well and incubated at room temperature for 3-5 minutes. Fluorescence was then measured for each well using a Cytofluor II Fluoresence Multiwell Plate Reader and CytoFluor II software with filters at 480 nm for excitation and 520 nm for emission maxima. Cell proliferation was determined for mean values of duplicate samples as percentages relative to untreated cell samples (=100%). Growth inhibition curves were used to derive IC50 values.

MCF7 breast cancer cells = test: Activity Assay 6: CyQuant cell growth inhibition, MCF7; assay type: cell-based; details: Homo sapiens, 144 h, MCF7, 6 days
Procedure: as §1

[2] = test system: LNCAP prostate cancer cells; test: Activity Assay 6: CyQuant cell growth inhibition, LNCAP; assay type: cell-based; details: Homo sapiens, 96 h, 4 days
Procedure: as §1

[3] = test system: acetylated histone H4 in primary chronic lymphocytic leukaemia cells; test: Histone H4 acetylation in primary chronic lymphocytic leukaemia cells; assay type: cell-based; details: data not shown
[4] = test system: histone acetylation in MCF7 breast cancer cells; test: Activity Assay 4: histone acetylation by immunoblotting, MCF7; assay type: cell-based; details: MCF7, 24 hours
Procedure: Method; Cardiac myocytes were prepared as described in Chembiochem. 2005 January; 6(1):162-70 and incubated with the indicated concentrations of compound 001 for 24 hours. MCF7 cells were incubated with the indicated concentrations of compound 001 for 24 hours. Expression of total histone H4 acetylation, or specific acetylation of Histone H4-K8 or Histone H3-K9 was analysed by Western blotting, as previously described (Brimmell et al. Br J Cancer. 1999 November; 81(6):1042-51) using antibodies from Upstate Biotech.
(A) MCF7 cells were incubated with compound 001 for 24 hours. Histone H4 acetylation was measured by immunoblotting. (B) Cardiac myocytes were incubated with indicated compound 001 for 24 hours. Histone H4 acetylation was measured by immunoblotting. (C) MCF7 cells were incubated with compound 001 for 24 hours. Histone H3-K9 and Histone H4-K8 acetylation was measured by immunoblotting

[5] = test system: HUT78 T-cell leukaemia cells; test: CyQuant cell proliferation assay, HUT78; assay type: cell-based, human; details: data not shown
[6] = test system: normal human dermal fibroblasts (NHDF); test: Activity Assay 1: CyQuant cell proliferation assay, NHDF; assay type: cell-based; details: 144 h, read-out: mean IC50 for growth inhibition (±SD), NHDF
Procedure: (§2) Method; Cell proliferation assays were performed using the CyQuant™ assay system (Molecular Probes, Inc. USA) according to the manufacturer's instructions. This system utilises a proprietary green fluorescent dye which undergoes strong fluorescent enhancement on binding cellular nucleic acids, to allow determination of cell number with a linear detection range between 50 to 250,000 cells. Estrogen receptor positive MCF7 breast cancer cells (ECAAC) and NHDF cells (Cambrex, UK) were plated in 96 well plates, at a density of 1000 cells in 100 μl of cell culture medium per well. Compounds were added a minimum of 5 hours later, in serial dilutions in cell culture medium, in 100 μl volumes at 2× final concentration. Six days later cell culture medium was removed by inversion of the plate onto blotting paper and cells were gently washed once with 200 μl PBS. […] Fluorescence was then measured for each well using a Cytofluor II Fluoresence Multiwell Plate Reader and CytoFluor II software with filters at 480 nm for excitation and 520 nm for emission maxima. Cell proliferation was determined for mean values of duplicate samples as percentages relative to untreated cell samples (=100%). […]
(§3) MCF7 and NHDF were incubated with the indicated concentrations of compounds. After 6 days cell growth relative to untreated cells (=100%) was determined using the CyQuant™ assay. […]

[7] = test system: MCF7 human breast cancer cells; test: Activity Assay 1: CyQuant cell proliferation assay, MCF7; assay type: cell-based
Procedure: as §2, §3

## CC(C)[C@H]1NC(=O)[C@H]2CSSCC/C=C/[C@H](CC(=O)N[C@H](C)C(=O)N2)OC(=O)CNC1=O [Compound 9A, (E)-(1S,7R,10S,21R)-7-isopropyl-21-methyl-2-oxa-12,13-dithia-5,8,20,23-tetraaza-bicyclo[8.7.6]tricos-16-ene-3,6,9,19,22-pentaone]
MCF7 cells
  cell cycle distribution and survival: induce a predominant G2/M phase arrest and cell death
[1]
  IC50: 130 nM
MCF7 breast cancer cells
  IC50: 36.6 nM
[2]
  IC50: 252 nM
[3]
  levels of acetylated histone H4, primary chronic lymphocytic leukaemia cells: increased the levels of acetylated histone H4
[4]
  Histone H3-K9 and Histone H4-K8 acetylation, MCF7 cells: specific Histone H3-K9 and Histone H4-K8 acetylation
  Histone H4 acetylation, MCF7 cells: induces the accumulation of acetylated histone H4
[5]
  growth of HUT78 T-cell leukaemia cells: inhibited the growth of these cells
[6]
  IC50: 420 ± 42 nM
[7]; Homo sapiens, 144 h, MCF7, 6 days, CyQuant, mean ± SD of multiple experiments, read-out: mean IC50 for growth inhibition (±SD), MCF7
  IC50: 121 ± 52 nM
[7]; MCF7, p=0.003, Student's t-test
  potency of cancer cell growth inhibition compared with SAHA: significantly more potent than SAHA
